How the values were obtained:
Type in all cases: in vivo
[1] = test system: spider mite (Tetranychus urticae); assay: Tetranychus test (OP resistant/dip treatment); settings: active compound concentration 0.1%; after 5 days; bean plants dipped
Protocol: Tetranychus Test (OP Resistant/dip Treatment)
Solvent: 3 parts by weight of dimethylformamide
Emulsifier: 1 part by weight of alkylaryl polyglycol ether
To produce a suitable preparation of active compound, 1 part by weight of active compound is mixed with the stated amount of solvent and the stated amount of emulsifier, and the concentrate is diluted with water to the desired concentration.
Bean plants (Phaseolus vulgaris) heavily infected by all stages of the spider mite (Tetranychus urticae) are dipped into a preparation of the active compound of the desired concentration.
After the specified period of time, the destruction in % is determined. 100% means that all spider mites have been killed; 0% means that none of the spider mites have been killed.

[2] = test system: larvae of the green rice leafhopper (Nephotettix cincticeps); assay: Nephotettix test; settings: active compound concentration 0.1%; after 6 days; rice seedlings dipped
Protocol: Nephotettix Test Solvent: 7 parts by weight of dimethylformamide Emulsifier: 1 part by weight of alkylaryl polyglycol ether To produce a suitable preparation of active compound, 1 part by weight of active compound is mixed with the stated amount of solvent and the stated amount of emulsifier, and the concentrate is diluted with water to the desired concentration. Rice seedlings (Oryzae sativa) are treated by being dipped into the preparation of the active compound of the desired concentration and are infested with larvae of the green rice leafhopper (Nephotettix cincticeps) while the seedlings are still moist. After the specified period of time, the destruction in % is determined. 100% means that all the leafhoppers have been killed; 0% means that none of the leafhoppers have been killed.

[3] = test system: caterpillars of the diamond-back moth (Plutella maculipennis); assay: Plutella test; settings: active compound concentration 0.1%; after 7 days; cabbage leaves dipped
Protocol: Plutella Test Solvent: 7 parts by weight of dimethylformamide Emulsifier: 1 part by weight of alkylaryl polyglycol ether To produce a suitable preparation of active compound, 1 part by weight of active compound is mixed with the stated amount of solvent and the stated amount of emulsifier, and the concentrate is diluted with water to the desired concentration. Cabbage leaves (Brassica oleracea) are treated by being dipped into the preparation of active compound of the desired concentration and are infested with caterpillars of the diamond-back moth (Plutella maculipennis) while the leaves are still moist. After the specified period of time, the destruction in % is determined. 100% means that all the caterpillars have been killed; 0% means that none of the caterpillars have been killed.

[4] = test system: mustard beetle larvae (Phaedon cochleariae); assay: Phaedon larvae test; settings: active compound concentration 1000 ppm; after 7 days; cabbage leaves dipped
Protocol: Phaedon Larvae Test Solvent: 7 parts by weight of dimethylformamide Emulsifier: 1 part by weight of alkylaryl polyglycol ether To produce a suitable preparation of active compound, 1 part by weight of active compound is mixed with the stated amount of solvent and the stated amount of emulsifier, and the concentrate is diluted with water to the desired concentration. Cabbage leaves (Brassica oleracea) are treated by being dipped into the preparation of the active compound of the desired concentration and are infested with mustard beetle larvae (Phaedon cochleariae) while the leaves are still moist. After the specified period of time, the destruction in % is determined. 100% means that all the beetle larvae have been killed; 0% means that none of the beetle larvae have been killed.

| Compound | destruction in % [1] | destruction in % [2] | destruction in % [3] | destruction in % [4] |
| --- | --- | --- | --- | --- |
| Cc1ccc(Cl)c(C)c1C1=C(OC(=O)C(C)(C)C)C2(CCCCC2)OC1=O [I-2-b-1] | 100% |  |  |  |
| Cc1ccc(Cl)c(C)c1C1=C(OC(=O)CC(C)C)C2(CCC(C)CC2)NC1=O (centres unmarked) [I-1-b-1] |  | 100% | 100% | 100% |
| Cc1ccc(Cl)c(C)c1C1=C(O)C2(CCC(C)CC2)NC1=O (centres unmarked) [I-1-a-1] | 100% | 100% |  |  |
| CCOC(=O)OC1=C(c2c(C)ccc(Cl)c2C)C(=O)NC12CCC(C)CC2 (centres unmarked) [I-1-c-1] |  |  | 100% | 100% |

From patent US6486343B1, “Substituted phenyl keto enols as pesticides and herbicides” (Bayer Aktiengesellschaft, priority 1996, dated 2002)
